Laboratory results from patent US9687493B2, “Use of NK-1 receptor antagonists for treating hypomagnesemia, neurogenic inflammation, and cardiac dysfunction associated with EGFR-blocking drugs” (THE GEORGE WASHINGTON UNIVERSITY, priority 2014, dated 2017).
Read-outs that look alike come from different tables or passages of the source.

Columns and labels:
[1] = 9 weeks; Emend co-treatment with erlotinib
Method: At periodic intervals, blood was collected (˜0.5 ml) aseptically from the tail of anaesthetized rats (2% isoflurane, EZ Anesthesia Chamber with nose cone)(13, 14) in sterile microtainer plasma separator tubes containing heparin and the protease inhibitor, aprotinin (Sigma Chemicals, St. Louis Mo.) to yield final blood concentrations of 10.74 units/ml and 0.016 units/ml, respectively. For subsequent samplings, the scab was carefully removed, and the process was repeated. Plasma was obtained after centrifugation (12,000 rpm, 2 min, RT, IDEXX StatSpin VT, Iris International, Inc., Westwood, Mass.). Tail bleed samples were used for assessment of plasma Mg, and substance P levels. Sacrifice blood samples (˜8 ml collected in heparin plus aprotinin containing BD vacutainer SST tubes) were taken from anaesthetized, heparinized (0.3-0.4 ml 358 units/ml heparin in 0.9% NaCl, i.p.) rats from either the vena cava or by cardiac puncture, and were centrifuged (3,500 rpm, 10 min, RT). […]
Hypomagnesemia alone in rodents can promote neutrophil free radical generating activity (Mak et al., Exp. & Clin. Cardiol. 2011, 16(4):121-124; Mak et al., Magnesium Res 2003, 16(2):91-97). […] Circulating neutrophil basal superoxide generating activity was determined as SOD-inhibitable reduction of cytochrome c (FIG. 3A). Plasma 8-isoprostane was assessed by a colorimetric ELISA kit (FIG. 3B). […]

[2] = for improvement of AoPmax: NS
Method: Anesthetized rats were subjected to echocardiography periodically during the treatment regimens using a GE VingMed System Five Echocardiogram System (12, 13, 17, and 18). Heart rate and rectal temperature (35.9-37.5° C.) were monitored constantly during the imaging. Animals were placed on a warming platform with paws taped down to limit any motion during imaging, and a sterile eye lubricant was applied to prevent eye drying during the procedure. Hair over the thorax was removed first with an electric clipper, and then with a depilatory cream (<2 min exposure). Animals were imaged (10 MHz probe) for about 20 minutes at an image depth of 3 cm. This imaging system allows for both cardiac structure and function evaluation in rats. Systolic function, measured as % fractional shortening (% FS) using M-mode imaging, and left ventricular ejection fraction (LVEF), calculated from M-mode measurements, were assessed. Key anatomical parameters (IVSd & s=inter-ventricular septum diameter in diastole and systole; and LVPWd & s=LV posterior wall thickness in diastole or systole) were measured to assess the presence of dilated or hypertrophic cardiomyopathy. Measurements of the aortic and pulmonary artery diameters were used to calculate stroke volumes. Aortic pressure max (AoPmax) was assessed; and spectral Doppler velocities were measured for the pulmonic and aortic outflows to calculate cardiac output (CO), and for the mitral valve inflows to assess ventricular diastolic function (mitral valve E and A wave velocities and the E/A ratio were obtained). After echocardiography, animals were placed in room air until awake, and observed until fully recovered.
Rats treated with erlotinib (starting 10 mg/kg/day, oral) and/or Emend (aprepitant, starting 2 mg/kg/day, oral) received echocardiography at the indicated intervals (FIGS. 5A-5C).
Table 3 legend: Interventricular septum dimension in diastole (IVSd) and systole (IVSs); and LV posterior wall thickness in diastole (LVPWd) and systole (LVPWs). Rats treated with erlotinib (starting 10 mg/kg/day, oral) and/or Emend (aprepitant, starting 2 mg/kg/day, oral) received echocardiography at the indicated intervals. Values (% change) for erlotinib±Emend rats were compared to time-matched controls, and are means±SEM of 5-7 rats per group.

[3] = Plasma magnesium by atomic absorption flame emission spectroscopy; format: in vivo, Sprague-Dawley rats; conditions: 9 week; Emend (starting 2 mg/kg/day) co-treatment with erlotinib
Method: Individually-housed rats were weighed and food consumption recorded daily to obtain actual drug dosage: time-range average erlotinib dose over 9 weeks was 7.07 mg/kg/day, and time-range average Emend dose over 9 weeks was 1.41 mg/kg/day.
Magnesium levels in 1:50 or 1:100 diluted, acidified (nitric acid) plasma samples were determined by atomic absorption flame emission spectroscopy (wavelength=285.2 nm) using an AA-6200 Shimadzu spectrophotometer (Columbia, Md.) as described (13). Values obtained from standard curves were mg/dl, and reported as % of control.
Plasma was assessed for magnesium by flame emission atomic absorption spectroscopy (FIG. 2A). Data are the means±SEM of 5-7 animals per group. * p<0.05, **p<0.01 and # p<0.001 compared with the time-matched control group; +p<0.055 versus erlotinib alone. Plasma SP (FIG. 2B) was assessed by a colorimetric ELISA kit.

[4] = tested on: neutrophils
Method: (§1) At periodic intervals, blood was collected (˜0.5 ml) aseptically from the tail of anaesthetized rats (2% isoflurane, EZ Anesthesia Chamber with nose cone)(13, 14) in sterile microtainer plasma separator tubes containing heparin and the protease inhibitor, aprotinin (Sigma Chemicals, St. Louis Mo.) to yield final blood concentrations of 10.74 units/ml and 0.016 units/ml, respectively. For subsequent samplings, the scab was carefully removed, and the process was repeated. Plasma was obtained after centrifugation (12,000 rpm, 2 min, RT, IDEXX StatSpin VT, Iris International, Inc., Westwood, Mass.). Tail bleed samples were used for assessment of plasma Mg, and substance P levels. Sacrifice blood samples (˜8 ml collected in heparin plus aprotinin containing BD vacutainer SST tubes) were taken from anaesthetized, heparinized (0.3-0.4 ml 358 units/ml heparin in 0.9% NaCl, i.p.) rats from either the vena cava or by cardiac puncture, and were centrifuged (3,500 rpm, 10 min, RT). In addition to the above plasma parameters, sacrifice plasma was also assayed for 8-isoprostane levels, and the whole blood samples were processed for neutrophil isolation and assessment of superoxide anion production.
At sacrifice, whole blood (3 ml) samples were obtained; neutrophils were isolated by a step-gradient centrifugation method (13,−16). Superoxide anion production from neutrophils (0.5-0.75×10^6/ml) with (stimulated) or without (basal) PMA (phorbol myristate acetate, 100 ng/ml) was assayed in a phosphate buffer (pH 7.6) containing 5 mM glucose, 1 mM CaCl2, 1 mM MgCl2, and 75 μM cytochrome c±50 μg SOD. Superoxide generation was estimated as SOD-inhibitable reduction of cytochrome c using the extinction coefficient: E550=2.1×10^4M^−1cm^−1.
Hypomagnesemia alone in rodents can promote neutrophil free radical generating activity (Mak et al., Exp. & Clin. Cardiol. 2011, 16(4):121-124; Mak et al., Magnesium Res 2003, 16(2):91-97). In the present study, blood was sampled from rats treated with erlotinib (starting 10 mg/kg/day, oral) and/or Emend (aprepitant, starting 2 mg/kg/day, oral) at 9 weeks of exposure. Circulating neutrophil basal superoxide generating activity was determined as SOD-inhibitable reduction of cytochrome c (FIG. 3A). Plasma 8-isoprostane was assessed by a colorimetric ELISA kit (FIG. 3B). Values for erlotinib±Emend rats were compared to time-matched controls, and are means±SEM of 4-6 rats per group. ** p<0.01 versus control; ++p<0.01 versus erlotinib alone. […] Enhanced systemic oxidative stress, as represented by increased total plasma 8-isoprostane content (FIG. 3B), was prominent by 9 weeks (210% increase, p<0.01).

[5] = rat, in vivo
Method: Experiments on animals were conducted in accordance with the principles given in the US Department of Health and Human Services Guide for the Care and Use of Laboratory Animals and were approved by The George Washington University Institutional Animal Care and Use Committee. Male Sprague-Dawley rats (125-150 g) were purchased from Hilltop Lab Animals, Inc. (Scottdale, Pa.). After 1 week of quarantine, all age-matched rats were placed on an ad libitum Mg normal diet (25 mmole magnesium oxide/kg food regarded as 100% recommended daily allowance for rodents) obtained from Harlan-Teklad (Madison, Wis.) containing extracted casein as the diet base supplemented with essential vitamins and nutrients; or the same diet supplemented with erlotinib (OSI Pharmaceuticals, LLC, Northbrook, Ill. 60062, USA) to obtain a starting dose of 10 mg/kg/day, Emend® (as aprepitant, Merck & Co., INC. USA) to obtain a starting dose of 2 mg/kg/day, or both agents at these doses. Individually-housed rats were weighed and food consumption recorded daily to obtain actual drug dosage: time-range average erlotinib dose over 9 weeks was 7.07 mg/kg/day, and time-range average Emend dose over 9 weeks was 1.41 mg/kg/day. Rats had free access to distilled-deionized water, and were on a 12 h light/dark cycle for up to 9 weeks. […]

[6] = tested on: nitro-tyrosine in cardiac tissue; test: Cardiac nitro-tyrosine immunohistochemical assessment; format: in vivo, Sprague-Dawley rats
Method: Cardiac tissue was rapidly excised, rinsed in saline, embedded in OCT compound, quickly frozen and kept at […] until used. Cryosections, 5 um thick, were stained by an indirect, immunohistochemical staining method (13) using rabbit anti-rat Nitrotyrosine antibody (5 ug/ml; Millipore, Billerica, Mass.) and the Vecta-Stain Elite ABC kit immunoperoxidase system (Vector Laboratories, Burlingame, Calif.). Samples were examined under an Olympus BX60 microscope, and multiple images were taken with a digital camera (Evolution Color MP; Media Cybernetics, Silver Spring, Md.). Briefly, fresh frozen sections were fixed in 10% formaldehyde, washed in PBS, incubated with 0.3% hydrogen peroxide in methanol for 30 min to block endogenous peroxidase, washed in PBS and incubated overnight at 4 C with rabbit anti nitrotyrosine antibody, which was applied on every slide except negative control. ABC kit reagents for horseradish peroxidase and 3-3′diaminebenzidine (DAB) were used to visualize the antigen-antibody reaction product as brown color. The sections were counterstained with hematoxylin, rinsed, dehydrated and cleared in series of ethanol and xylene and coverslipped.

[7] = Plasma substance P (SP) by ELISA; format: in vivo, Sprague-Dawley rats; conditions: Emend co-treatment with erlotinib
Method: Experiments on animals were conducted in accordance with the principles given in the US Department of Health and Human Services Guide for the Care and Use of Laboratory Animals and were approved by The George Washington University Institutional Animal Care and Use Committee. Male Sprague-Dawley rats (125-150 g) were purchased from Hilltop Lab Animals, Inc. (Scottdale, Pa.). After 1 week of quarantine, all age-matched rats were placed on an ad libitum Mg normal diet (25 mmole magnesium oxide/kg food regarded as 100% recommended daily allowance for rodents) obtained from Harlan-Teklad (Madison, Wis.) containing extracted casein as the diet base supplemented with essential vitamins and nutrients; or the same diet supplemented with erlotinib (OSI Pharmaceuticals, LLC, Northbrook, Ill. 60062, USA) to obtain a starting dose of 10 mg/kg/day, Emend® (as aprepitant, Merck & Co., INC. USA) to obtain a starting dose of 2 mg/kg/day, or both agents at these doses. Individually-housed rats were weighed and food consumption recorded daily to obtain actual drug dosage: time-range average erlotinib dose over 9 weeks was 7.07 mg/kg/day, and time-range average Emend dose over 9 weeks was 1.41 mg/kg/day. Rats had free access to distilled-deionized water, and were on a 12 h light/dark cycle for up to 9 weeks.
as §1

[8] = 7 weeks, Emend co-treatment of erlotinib-exposed rats
[9] = 7 weeks, Emend co-treatment, p<0.05 vs erlotinib alone
[10] = 9 weeks, Emend co-treatment, p<0.02
[11] = 9 weeks, Emend co-treatment with erlotinib

C[C@@H](O[C@H]1OCCN(Cc2n[nH]c(=O)[nH]2)[C@H]1c1ccc(F)cc1)c1cc(C(F)(F)F)cc(C(F)(F)F)c1 [Emend, aprepitant]
effect on elevation of total plasma isoprostane caused by erlotinib [1]: completely blocked | improvement of LV % FS compared to erlotinib alone ([2]; 7 weeks, Emend co-treatment): 65.1% | improvement of LVPWs ([2]; 7 weeks, Emend co-treatment): 53.4% | protection against erlotinib-induced decline in cardiac output ([2]; 7 weeks, Emend co-treatment): 64.9% | improvement of IVSd [2, 8]: 48.2% | improvement of LVEF compared to erlotinib alone [2, 8]: 71.3% | improvement of AoPmax ([2]; 7 weeks, Emend co-treatment): 86% | improvement of IVSs [2, 9]: 76% | improvement of LVPWd [2, 9]: 59.1% | improvement of IVSd ([2]; 9 weeks, Emend co-treatment): 42.8% | improvement of IVSs ([2]; 9 weeks, Emend co-treatment): 62% | improvement of LVPWd ([2]; 9 weeks, Emend co-treatment): 49.8% | improvement of LVPWs ([2]; 9 weeks, Emend co-treatment): 58.2% | improvement of AoPmax ([2]; 9 weeks, Emend co-treatment): 64% | improvement of LV % FS compared to erlotinib alone [2, 10]: 86.4% | improvement of LVEF compared to erlotinib alone [2, 10]: 87.2% | protection against erlotinib-induced decline in cardiac output ([2]; 9 weeks, Emend co-treatment, p<0.02 vs ERL alone): 75.4% | improvement of mitral valve E/A ratio compared to erlotinib alone ([2]; 9 weeks, Emend co-treatment, p<0.05): 84.6% | impact on LV systolic, diastolic, hemodynamic and anatomical parameters compared to time-paired controls ([2]; rat, in vivo): did not have any significant impact | attenuation of severity of hypomagnesemia due to erlotinib [3]: ~42% | effect on erlotinib-caused increase in basal superoxide generating activity [4, 11]: completely prevented | effect on erlotinib-caused increase in stimulated superoxide generating activity [4, 11]: completely prevented | effect on neutrophil superoxide activity ([4]; rat, in vivo): no effects | food consumption compared to controls [5]: Neither ERL nor Emend affected food consumption | nitro-tyrosine formation in the ventricles ([6]; 9 wk, Emend co-treatment with erlotinib): visibly attenuated | nitro-tyrosine formation ([6]; rat, in vivo): did not have any effect | effect on erlotinib-induced increases in SP [7]: almost completely blocked
